From article PMC5285354, “Cationic Net Charge and Counter Ion Type as Antimicrobial Activity Determinant Factors of Short Lipopeptides” (Frontiers in Microbiology, 2017)
Converted amounts (≈) assume the structure as drawn. Where a SMILES comes first, the peptide text is derived from it. The star is where a group is joined. Myristoyl = CCCCCCCCCCCCCC(=O)*

Tests used:
Type in all cases: cell-based
[1] = system: Klebsiella pneumoniae (ATCC 700603); conditions: for MBC Klebsiella pneumoniae, lipopeptides without TFA counter ion / MIC Klebsiella pneumoniae / MIC Klebsiella pneumoniae, lipopeptides without TFA counter ion: ATCC 700603, 18 h; for MBC Klebsiella pneumoniae: ATCC 700603, 24 h
Method in brief: (§1)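 Lowest lipopeptide concentration (μg/mL) with no observable growth gave the MIC, alongside MBC/MFC, by CLSI microbroth dilution. Fungi: Sabouraud dextrose broth, 10^3 cfu/mL start, 25°C for 48 h; bacteria: MH broth, 10^5 cfu/mL, 37°C for 18 h. Run in triplicate, three separate days.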

[2] = system: Staphylococcus aureus (ATCC 25923); conditions: for MBC Staphylococcus aureus, lipopeptides without TFA counter ion / MIC Staphylococcus aureus / MIC Staphylococcus aureus, lipopeptides without TFA counter ion: ATCC 25923, 18 h; for MBC Staphylococcus aureus: ATCC 25923, 24 h
Method in brief: as §1

[3] = system: Proteus vulgaris (PCM 2668); conditions: 18 h
Method in brief: as §1

[4] = system: Candida tropicalis (PCM 2681); conditions: PCM 2681, 48 h
Method in brief: as §1

[5] = system: Bacillus subtilis (ATCC 6633); conditions: for MIC Bacillus subtillis: ATCC 6633, 18 h; for MBC Bacillus subtillis: ATCC 6633, 24 h
Method in brief: as §1

[6] = system: Candida albicans (ATCC 10231); conditions: ATCC 10231, 48 h
Method in brief: as §1

[7] = system: Pseudomonas aeruginosa (ATCC 9027); conditions: ATCC 9027, 18 h
Method in brief: as §1

[8] = system: Aspergillus brasiliensis (ATCC 16404); conditions: ATCC 16404, 48 h
Method in brief: as §1

[9] = system: Escherichia coli (ATCC 25922); conditions: for MBC Escherichia coli, lipopeptides without TFA counter ion / MIC Escherichia coli / MIC Escherichia coli, lipopeptides without TFA counter ion: ATCC 25922, 18 h; for MBC Escherichia coli: ATCC 25922, 24 h
Method in brief: as §1

[10] = system: Staphylococcus epidermidis (PCM 2118); conditions: for MIC Staphylococcus epidermidis: PCM 2118, 18 h; for MBC Staphylococcus epidermidis: PCM 2118, 24 h
Method in brief: as §1

[11] = system: Enterococcus faecalis (ATCC 29212); conditions: for MBC Enterococcus fecalis, lipopeptides without TFA counter ion / MIC Enterococcus fecalis / MIC Enterococcus fecalis, lipopeptides without TFA counter ion: ATCC 29212, 18 h; for MBC Enterococcus fecalis: ATCC 29212, 24 h
Method in brief: as §1

[12] = system: Candida albicans (ATCC 10231)
[13] = system: Proteus vulgaris (PCM 2668); conditions: 24 h
[14] = system: Pseudomonas aeruginosa (ATCC 9027); conditions: ATCC 9027, 24 h
[15] = system: human red blood cells; conditions: 1 h
Method: The hemolytic activity of the lipopeptides was determined by exposing human red blood cells (4% v/v) to tested compounds at graded concentrations. Red blood cells were obtained from a healthy donor. EDTA was used to prevent the blood clotting. The plasma was removed via centrifugation and the erythrocytes were washed three times with PBS. The red blood cells were suspended in PBS and incubated with different concentrations of lipopeptides at 37°C for 1 h and centrifuged for 5 min at 1000 × g. The supernatants were transferred to a sterile 96-well plate and hemoglobin release was measured with an Epoch microplate spectrophotometer (BioTek, USA) by recording the absorbance at 550 nm. A 0.1% Triton X-100 solution was used as the positive control (100% of hemolysis) and pure PBS as the negative (0% of hemolysis). Minimum hemolytic concentration (MHC) was taken as the lowest concentration which induced 10% of hemolysis.

Row | Compound | MBC Klebsiella pneumoniae, lipopeptides without TFA counter ion [1] [µg/mL] | MIC Klebsiella pneumoniae [1] [µg/mL] | MIC Klebsiella pneumoniae, lipopeptides without TFA counter ion [1] [µg/mL] | MBC Klebsiella pneumoniae [1] [µg/mL] | MBC Staphylococcus aureus, lipopeptides without TFA counter ion [2] [µg/mL] | MIC Staphylococcus aureus [2] [µg/mL] | MIC Staphylococcus aureus, lipopeptides without TFA counter ion [2] [µg/mL] | MBC Staphylococcus aureus [2] [µg/mL] | MIC Proteus vulgaris [3] [µg/mL] | MFC Candida tropicalis [4] [µg/mL] | MIC Candida tropicalis [4] [µg/mL] | MIC Bacillus subtillis [5] [µg/mL] | MBC Bacillus subtillis [5] [µg/mL] | MFC Candida albicans [6] [µg/mL] | MIC Candida albicans [6] [µg/mL] | MIC Candida albicans, lipopeptides without TFA counter ion [6] [µg/mL] | MIC Pseudomonas aeruginosa [7] [µg/mL] | MFC Aspergillus brasiliensis [8] [µg/mL] | MIC Aspergillus brasiliensis [8] [µg/mL] | MBC Escherichia coli, lipopeptides without TFA counter ion [9] [µg/mL] | further results
1 | CCCCCCCCCCCCCC(=O)N[C@@H](CCCCN)C(N)=O [C14-K-NH2] | 512 (≈ 1440 µM) | 64 (≈ 180 µM) | 64 (≈ 180 µM) | 512 (≈ 1440 µM) | 64 (≈ 180 µM) | 64 (≈ 180 µM) | 64 (≈ 180 µM) | 64 (≈ 180 µM) | >512 | >512 | >512 | 32 (≈ 90 µM) | 32 (≈ 90 µM) | 512 (≈ 1440 µM) | 512 (≈ 1440 µM) | 512 (≈ 1440 µM) | 128 (≈ 360 µM) | 512 (≈ 1440 µM) | 512 (≈ 1440 µM) | 128 (≈ 360 µM) | MIC Escherichia coli [9]: 128 µg/mL (≈ 360 µM); MIC Escherichia coli, lipopeptides without TFA counter ion [9]: 64 µg/mL (≈ 180 µM); MBC Escherichia coli [9]: 128 µg/mL (≈ 360 µM); MIC Staphylococcus epidermidis [10]: 16 µg/mL (≈ 45 µM); MBC Staphylococcus epidermidis [10]: 16 µg/mL (≈ 45 µM); MBC Enterococcus fecalis, lipopeptides without TFA counter ion [11]: 64 µg/mL (≈ 180 µM); MIC Enterococcus fecalis [11]: 64 µg/mL (≈ 180 µM); MIC Enterococcus fecalis, lipopeptides without TFA counter ion [11]: 64 µg/mL (≈ 180 µM); MBC Enterococcus fecalis [11]: 64 µg/mL (≈ 180 µM); MFC Candida albicans, lipopeptides without TFA counter ion [12]: 512 µg/mL (≈ 1440 µM); MBC Proteus vulgaris [13]: >512 µg/mL; MBC Pseudomonas aeruginosa [14]: 1000 µg/mL (≈ 2810 µM); Hemolysis HC10 (MHC), concentration of lipopeptide inducing 10% of hemolysis [15]: 512 µg/mL
2 | CCCCCCCCCCCCCC(=O)N[C@@H](CCCCN)C(=O)NCC(=O)N[C@@H](CCCCN)C(N)=O [C14-KGK-NH2] (Myristoyl-Lys-Gly-Lys-NH2) | 64 (≈ 118 µM) | 64 (≈ 118 µM) | 64 (≈ 118 µM) | 64 (≈ 118 µM) | 64 (≈ 118 µM) | 64 (≈ 118 µM) | 64 (≈ 118 µM) | 128 (≈ 237 µM) | >512 | 256 (≈ 473 µM) | 256 (≈ 473 µM) | 8 (≈ 14.8 µM) | 8 (≈ 14.8 µM) | 128 (≈ 237 µM) | 128 (≈ 237 µM) | 128 (≈ 237 µM) | 32 (≈ 59.2 µM) | 128 (≈ 237 µM) | 128 (≈ 237 µM) | 128 (≈ 237 µM) | MIC Escherichia coli [9]: 128 µg/mL (≈ 237 µM); MIC Escherichia coli, lipopeptides without TFA counter ion [9]: 128 µg/mL (≈ 237 µM); MBC Escherichia coli [9]: 128 µg/mL (≈ 237 µM); MIC Staphylococcus epidermidis [10]: 16 µg/mL (≈ 29.6 µM); MBC Staphylococcus epidermidis [10]: 16 µg/mL (≈ 29.6 µM); MBC Enterococcus fecalis, lipopeptides without TFA counter ion [11]: 64 µg/mL (≈ 118 µM); MIC Enterococcus fecalis [11]: 64 µg/mL (≈ 118 µM); MIC Enterococcus fecalis, lipopeptides without TFA counter ion [11]: 64 µg/mL (≈ 118 µM); MBC Enterococcus fecalis [11]: 64 µg/mL (≈ 118 µM); MFC Candida albicans, lipopeptides without TFA counter ion [12]: 128 µg/mL (≈ 237 µM); MBC Proteus vulgaris [13]: >512 µg/mL; MBC Pseudomonas aeruginosa [14]: 64 µg/mL (≈ 118 µM); Hemolysis HC10 (MHC), concentration of lipopeptide inducing 10% of hemolysis [15]: 128 µg/mL
